Values quoted from earlier work as cited in patent US20150320096A1, “Dietary Supplement” (MC Corp., priority 2013, published 2015).

Columns and labels:
[1] = test system: glut-4 transporters; settings: muscle tissue
[2] = oral administration
[3] = oral

SMILES: O=C(O)CCCCC1CCSS1 (stereo not drawn) [ALA, Alpha-Lipoic Acid]
- increase in the number of glut-4 transporters on the outside of the muscle cells [1]: ≤ 50%

SMILES: C/C1=C2/[N-][C@H]([C@H](CC(N)=O)[C@@]2(C)CCC(=O)NC[C@@H](C)OP(=O)([O-])O[C@H]2[C@@H](O)[C@@H](n3cnc4cc(C)c(C)cc43)O[C@@H]2CO)[C@]2(C)N=C(/C(C)=C3N=C(/C=C4N=C1[C@@H](CCC(N)=O)C\4(C)C)[C@@H](CCC(N)=O)[C@]\3(C)CC(N)=O)[C@@H](CCC(N)=O)[C@]2(C)CC(N)=O.[CH3-].[Co+3] [Methylcobalamin]
- burning sensations, numbness, loss of sensation, and muscle cramps [2]: subjective improvement
- ingested dose absorbed by diffusion process [3]: approximately 1%

SMILES: COC1=C(OC)C(=O)C(C/C=C(\C)CC/C=C(\C)CC/C=C(\C)CC/C=C(\C)CC/C=C(\C)CC/C=C(\C)CC/C=C(\C)CC/C=C(\C)CC/C=C(\C)CCC=C(C)C)=C(C)C1=O [coenzyme Q10, Coenzyme Q10]
- blood glucose levels (dietary supplementation): significantly reduce
- hemoglobin A1C (HbA1C) (dietary supplementation): lower
- increase of plasma coenzyme Q10 (dietary supplementation, patients with diabetes): at least 3 fold
- blood pressure (patients with diabetes): significantly lowered
- insulin requirements (patients with diabetes): reduce
